Assay results taken from patent publication US20260345795A1, “MULTIVALENCY FOR ENZYME INHIBITION” (Indiana University Research and Technology Corporation, priority 2022, published 2026).
Several values for one entry are separate records, joined by “and”; a condition that tells them apart may be missing. Equal values may be shown once. Entries after “also recorded” stand apart in the source; their conditions may differ. Read-outs that look alike come from different tables or passages of the source.

Assays:
[1] = molecular target: T1, Human plasmin (Homo sapiens, UniProt P00747); test: Plasmin inhibition assay with chromogenic substrate S-2251, Dixon plot / Cornish-Bowden analysis; type: biochemical; conditions: role: inhibitor; for rp1: relative potency = Ki^AMB/Ki^multi: hetero-bivalent inhibitors relative to AMB; for rp2: relative potency = Ki^TXA or EACA/Ki^multi: hetero-bivalent inhibitors relative to TXA or EACA; for mode of inhibition (Cornish-Bowden plot): S-2251; for rp: relative potency = Ki^AMB/Ki^multi: benzamidine inhibitors relative to AMB; for rp/n: relative potency/number of benzamidine units: relative to AMB per benzamidine unit
T1 construct: a heavy chain (~60 kDa) comprising 5 kringle domains
T1 sequence (P00747 581-810 limits assumed): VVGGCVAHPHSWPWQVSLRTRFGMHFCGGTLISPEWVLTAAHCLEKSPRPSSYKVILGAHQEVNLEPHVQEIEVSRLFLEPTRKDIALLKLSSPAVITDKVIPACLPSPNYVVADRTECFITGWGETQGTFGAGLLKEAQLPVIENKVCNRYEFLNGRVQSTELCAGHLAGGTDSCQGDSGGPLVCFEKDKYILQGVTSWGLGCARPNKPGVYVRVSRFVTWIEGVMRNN
T1 sequence (P00747 97-580 limits assumed): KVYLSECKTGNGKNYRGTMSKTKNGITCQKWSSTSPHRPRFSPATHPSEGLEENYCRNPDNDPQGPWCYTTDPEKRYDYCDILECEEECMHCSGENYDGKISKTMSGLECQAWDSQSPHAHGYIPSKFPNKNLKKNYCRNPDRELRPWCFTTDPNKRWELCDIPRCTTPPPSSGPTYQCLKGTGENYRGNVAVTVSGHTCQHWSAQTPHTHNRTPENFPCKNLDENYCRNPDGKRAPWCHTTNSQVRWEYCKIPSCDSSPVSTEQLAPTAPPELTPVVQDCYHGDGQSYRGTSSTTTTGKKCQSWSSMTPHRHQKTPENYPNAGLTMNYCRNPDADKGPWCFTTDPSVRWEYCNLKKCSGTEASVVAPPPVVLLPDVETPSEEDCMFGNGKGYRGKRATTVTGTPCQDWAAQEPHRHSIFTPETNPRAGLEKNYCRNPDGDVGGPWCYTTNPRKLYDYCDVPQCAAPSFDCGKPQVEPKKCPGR
Protocol: Inhibition assays were performed on all synthesized multivalent affinity molecules in addition to free AMB and Pentamidine. […] Ki values were calculated for all multivalent affinity molecules via Dixon Plot analysis using the negative x-intersection point. […] A smaller Ki value indicates a higher degree of inhibition. Cornish-Bowden graphs (S/Vo vs I) were also plotted to verify the type of inhibition, i.e., competitive, uncompetitive, non-competitive, or mixed.
Parameters used to quantify multivalency, namely, relative potency (rp), and relative potency per unit (rp/n) were also computed. To evaluate the strength of the multivalent affinity molecules as compared to the monovalent affinity molecules, rp was used and is a ratio of Ki^mono to Ki^multi Ki of monovalent AMB was used for this calculation since AMB was utilized for synthesis of the multivalent affinity molecules. […] To better evaluate multivalency effects, rp/n was also computed to determine the benefit of linking multiple affinity moieties together.
Human plasmin (42.5 nM) over a range of inhibitor concentrations (0-2 mM) and chromogenic substrate concentrations (Chromogenix S-2251 100-500 μM) were utilized for Inhibition assays.
Human plasmin (42.5 nM) over a range of inhibitor concentrations (0-500 μM) and chromogenic substrate concentrations (Chromogenix S-2251 100-500 μM) were utilized for Inhibition assays.
In this example, homo-multivalent and hetero multivalent micelles were synthesized to determine their plasmin inhibition. […] After weighing and mixing the appropriate lipids amounts in chloroform, a lipid film was made by slowly evaporating chloroform while rotating the vial gently under air. The dried lipid film was placed in a desiccator under vacuum overnight. The lipid film was rehydrated using 2 mL PBS and was sonicated for 2 mins while heating at 60° C. to obtain more rapid and less polydisperse micelle formation by self-assembly. […] Human plasmin (42.5 nM) over a range of inhibitor concentrations (0-500 μM) and chromogenic substrate concentrations (Chromogenix S-2251 100-500 μM) were utilized for Inhibition assays.

[2] = molecular target: thrombin (Homo sapiens, UniProt P00734); test: Thrombin inhibition assay with fluorogenic Thrombin Substrate III, Dixon plot analysis; type: biochemical; conditions: role: inhibitor; for Ki: PBS pH 7.4, 10% DMSO, read-out: Inhibition constant (Ki); for thrombin inhibition compared to plasmin: thrombin vs plasmin
Protocol: In this example, commercially available inhibitors shown in Table 1, Tri-AMB and all hetero-multivalent inhibitors were tested for their thrombin inhibition. Inhibition assays were performed using a fixed thrombin concentration of 0.25 U/mL in PBS pH 7.4 over a range of Thrombin Substrate III (fluorogenic) concentrations of 20-50 μM at 10% DMSO.

[3] = molecular target: tPA (Homo sapiens, UniProt P00750); test: tPA inhibition assay with chromogenic tPA substrate S-2288, Dixon plot analysis; type: biochemical; conditions: role: inhibitor; for Ki / tPA inhibition relative to another inhibitor: tPA 75 nM, S-2288 100-500 μM; for Ki: PBS pH 7.4, read-out: Inhibition constant (Ki); for tPA inhibition compared to plasmin: tPA vs plasmin
Sequence of tPA (P00750 36-562, species assumed): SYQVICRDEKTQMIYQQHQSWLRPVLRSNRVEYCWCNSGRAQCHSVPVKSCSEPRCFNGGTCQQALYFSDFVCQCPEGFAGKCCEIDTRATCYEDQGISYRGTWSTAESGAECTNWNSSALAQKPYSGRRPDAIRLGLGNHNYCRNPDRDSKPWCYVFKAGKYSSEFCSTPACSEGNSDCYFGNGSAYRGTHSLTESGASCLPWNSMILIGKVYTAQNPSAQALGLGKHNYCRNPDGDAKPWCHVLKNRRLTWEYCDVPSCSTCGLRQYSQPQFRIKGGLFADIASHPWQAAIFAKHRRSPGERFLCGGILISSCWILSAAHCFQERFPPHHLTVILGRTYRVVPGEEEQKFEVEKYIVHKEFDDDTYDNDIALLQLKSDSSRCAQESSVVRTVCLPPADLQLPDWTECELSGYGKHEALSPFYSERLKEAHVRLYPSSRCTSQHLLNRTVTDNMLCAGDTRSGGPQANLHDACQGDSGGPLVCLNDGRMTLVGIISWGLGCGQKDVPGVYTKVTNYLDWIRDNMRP
Protocol: Inhibition assays were performed using a fixed tPA concentration of 75 nM in PBS pH 7.4 over a range of Chromogenic tPA Substrate (S-2288) concentrations of 100-500 μM.

[4] = system: light chain and kringle 5 of plasmin; conditions: cited from earlier work
[5] = molecular target: LBS sites on other kringle domains of plasmin; conditions: role: inhibitor; cited from earlier work
[6] = treatment delayed beyond 3 hours; cited from earlier work
[7] = system: plasmin; conditions: role: inhibitor; Alves et al.; cited from earlier work
[8] = hetero-bivalent inhibitors, human plasmin 42.5 nM, S-2251 100-500 μM, read-out: Inhibition constant (Ki)
[9] = thrombin 0.25 U/mL, Thrombin Substrate III 20-50 μM
[10] = substrate S-2251 100-500 μM, plasmin 42.5 nM, PBS pH 7.4, benzamidine inhibitors, Dixon plot, read-out: Inhibition constant (Ki)

Structure (SMILES): N=C(N)c1ccc(CNC(=O)CCOCCOCCOCCOCCNC(=O)CCCCCN)cc1 [EACA-dPEG4-AMB]
- Ki [1, 8]: 0.233 ± 0.005 mM
- rp1: relative potency = Ki^AMB/Ki^multi ([1]; plasmin, S-2251 100-500 μM): 6
- rp2: relative potency = Ki^TXA or EACA/Ki^multi ([1]; plasmin, S-2251 100-500 μM): 305
- Ki [2, 9]: 5.6 ± 0.2 µM

Structure (SMILES): N=C(N)c1ccc(N)cc1 [4-amino benzamidine, 4-Aminobenzamidine, reference compound]
- Ki [3]: 148 ± 0.9 µM

Structure (SMILES): N=C(N)c1ccccc1 [Benzamidine]
- subsite binding [4]: weak subsite binding

Structure (SMILES): N=C(N)c1ccc(CNC(=O)CCOCCOCCOCCOCCNC(=O)CN(CC(=O)NCCOCCOCCOCCOCCC(=O)NCc2ccc(C(=N)N)cc2)CC(=O)NCCOCCOCCOCCOCCC(=O)NCc2ccc(C(=N)N)cc2)cc1 [Tri-dPEG4-AMB]
- mode of inhibition (Cornish-Bowden plot) ([1]; plasmin 42.5 nM, PBS pH 7.4): competitive inhibitor
- rp: relative potency = Ki^AMB/Ki^multi ([1]; plasmin, S-2251 100-500 μM): 27.6
- rp/n: relative potency/number of benzamidine units ([1]; plasmin, S-2251 100-500 μM): 9.2
- Ki [1, 10]: 0.0505 ± 0.014 mM

Structure (SMILES): N=C(N)c1ccc(CNC(=O)CCOCCOCCOCCOCCOCCOCCOCCOCCNC(=O)[C@H]2CC[C@H](CN)CC2)cc1 [TXA-dPEG8-AMB]
- Ki [1, 8]: 0.099 ± 0.0009 mM
- rp1: relative potency = Ki^AMB/Ki^multi ([1]; plasmin, S-2251 100-500 μM): 14
- rp2: relative potency = Ki^TXA or EACA/Ki^multi ([1]; plasmin, S-2251 100-500 μM): 216

Structure (SMILES): N=C(N)c1ccc(C(=O)O)cc1 [4-carboxy benzamidine, 4-Carboxybenzamidine, reference compound]
- Ki [2, 9]: 151 ± 4 µM

Structure (SMILES): N=C(N)c1ccc(CNC(=O)CCOCCOCCOCCOCCOCCOCCOCCOCCOCCOCCOCCOCCOCCOCCOCCOCCOCCOCCOCCOCCOCCOCCOCCOCCOCCOCCOCCOCCOCCOCCOCCOCCOCCOCCOCCOCCNC(=O)[C@H]2CC[C@H](CN)CC2)cc1 [TXA-dPEG36-AMB]
- Ki [1, 8]: 0.075 mM and 0.0754 mM
- rp1: relative potency = Ki^AMB/Ki^multi ([1]; plasmin, S-2251 100-500 μM): 19
- rp2: relative potency = Ki^TXA or EACA/Ki^multi ([1]; plasmin, S-2251 100-500 μM): 285
- Ki [2, 9]: 78 ± 1.5 µM

Structure (SMILES): NCCCCCC(=O)O [EACA, ε-Aminocaproic Acid, reference compound]
- Ki [2, 9]: > 10000 µM

Structure (SMILES): N=C(N)c1ccc(CNC(=O)CCOCCOCCOCCOCCNC(=O)[C@H]2CC[C@H](CN)CC2)cc1 [TXA-dPEG4-AMB]
- Ki [3]: 230 ± 30 µM
- Ki [1, 8]: 0.042 ± 0.0124 mM
- rp1: relative potency = Ki^AMB/Ki^multi ([1]; plasmin, S-2251 100-500 μM): 33
- rp2: relative potency = Ki^TXA or EACA/Ki^multi ([1]; plasmin, S-2251 100-500 μM): 509
- fold stronger than m-dPEG4-AMB (plasmin inhibition) ([1]; plasmin, relative to m-dPEG4-AMB, S-2251 100-500 μM): over 7 fold
- Ki [2, 9]: 14.5 ± 6.7 µM

Structure (SMILES): N=C(N)c1ccc(CN)cc1 [AMB, 4-aminomethyl benzamidine, reference compound]
- Ki [3]: 5210 ± 161 µM
- Ki [1, 8]: 1.4 ± 0.166 mM
- mode of inhibition (Cornish-Bowden plot) ([1]; plasmin 42.5 nM, PBS pH 7.4): competitive inhibitor
- Ki [1, 10]: 1.4 mM
- Ki [2, 9]: 344 ± 33 µM

Structure (SMILES): NC[C@H]1CC[C@H](C(=O)O)CC1 [TXA, Tranexamic acid]
- Ki [5]: 750 nM
- clinical trial outcome of delayed treatment [6]: ineffective or harmful

Structure (SMILES): COCCOCCOCCOCCOCCOCCOCCOCCOCCOCCOCCOCCOCCOCCOCCOCCOCCOCCOCCOCCOCCOCCOCCOCCC(=O)NCc1ccc(C(=N)N)cc1 [m-dPEG24-AMB]
- mode of inhibition (Cornish-Bowden plot) ([1]; plasmin 42.5 nM, PBS pH 7.4): competitive inhibitor
- rp: relative potency = Ki^AMB/Ki^multi ([1]; plasmin, S-2251 100-500 μM): 2.7
- rp/n: relative potency/number of benzamidine units ([1]; plasmin, S-2251 100-500 μM): 2.7
- Ki [1, 10]: 0.521 ± 0.0849 mM

Structure (SMILES): N=C(N)c1ccc(CNC(=O)CCOCCOCCOCCOCCOCCOCCOCCOCCOCCOCCOCCOCCNC(=O)[C@H]2CC[C@H](CN)CC2)cc1 [TXA-dPEG12-AMB]
- tPA inhibition relative to another inhibitor [3]: stronger tPA inhibitor than TXA-PEG4-AMB
- Ki [3]: 128 ± 11 µM
- Ki [1, 8]: 0.207 mM
- rp1: relative potency = Ki^AMB/Ki^multi ([1]; plasmin, S-2251 100-500 μM): 7
- rp2: relative potency = Ki^TXA or EACA/Ki^multi ([1]; plasmin, S-2251 100-500 μM): 103
- Ki [2, 9]: 46 ± 1.5 µM

Structure (SMILES): NC[C@H]1CC[C@H](C(=O)NCCCC[C@H](NC(=O)[C@H]2CC[C@H](CN)CC2)C(N)=O)CC1 [Bis-TXA]
- Ki ([1]; TXA affinity molecules, human plasmin 42.5 nM, S-2251 100-500 μM, read-out: Inhibition constant (Ki)): 6.4 ± 2.03 mM
- Ki ([1]; human plasmin 42.5 nM, S-2251 100-500 μM, text value in mM, read-out: Ki (active site inhibition of plasmin)): 6.4 mM
- rp: relative potency = Ki^TXA/Ki^multi ([1]; plasmin, TXA affinity molecules relative to TXA, S-2251 100-500 μM): 3.3
- rp/n: relative potency/number of TXA units ([1]; plasmin, relative to TXA per TXA unit, S-2251 100-500 μM): 1.7

Structure (SMILES): COCCOCCOCCOCCOCCOCCOCCOCCOCCOCCOCCOCCC(=O)NCc1ccc(C(=N)N)cc1 [m-dPEG12-AMB]
- mode of inhibition (Cornish-Bowden plot) ([1]; plasmin 42.5 nM, PBS pH 7.4): competitive inhibitor
- rp: relative potency = Ki^AMB/Ki^multi ([1]; plasmin, S-2251 100-500 μM): 3.9
- rp/n: relative potency/number of benzamidine units ([1]; plasmin, S-2251 100-500 μM): 3.9
- Ki [1, 10]: 0.36 ± 0.0352 mM

Structure (SMILES): N=C(N)c1ccc(OCCCCCOc2ccc(C(=N)N)cc2)cc1 [Pentamidine, reference compound]
- fold stronger plasmin inhibitor than the strongest monovalent benzamidine [7]: 15 fold
- tPA inhibition relative to another inhibitor [3]: stronger inhibitor than Tri-AMB
- Ki [3]: 48 ± 12 µM
- tPA inhibition compared to plasmin [3]: weaker tPA inhibitors compared to plasmin
- mode of inhibition (Cornish-Bowden plot) ([1]; plasmin 42.5 nM, PBS pH 7.4): competitive inhibitor
- rp: relative potency = Ki^AMB/Ki^multi ([1]; plasmin, S-2251 100-500 μM): 664.3
- rp/n: relative potency/number of benzamidine units ([1]; plasmin, S-2251 100-500 μM): 332.1
- Ki [1, 10]: 0.0021 mM and 0.0026 mM
- thrombin inhibition relative to another inhibitor [2, 9]: slightly stronger thrombin inhibitor than Tri-AMB
- Ki [2, 9]: 4.5 ± 2.3 µM
- thrombin inhibition compared to plasmin [2]: slightly weaker thrombin inhibitors compared to plasmin

Structure (SMILES): N=C(N)c1ccc(CNC(=O)CN(CC(=O)NCc2ccc(C(=N)N)cc2)CC(=O)NCc2ccc(C(=N)N)cc2)cc1 [Tri-AMB]
- Ki [3]: 112 ± 21 µM
- tPA inhibition compared to plasmin [3]: weaker tPA inhibitors compared to plasmin
- Ki [2, 9]: 10.6 ± 2 µM
- thrombin inhibition compared to plasmin [2]: slightly weaker thrombin inhibitors compared to plasmin

Structure (SMILES): N=C(N)c1ccc(CNC(=O)CCOCCOCCC(=O)NCc2ccc(C(=N)N)cc2)cc1 [Bis-dPEG2-AMB]
- mode of inhibition (Cornish-Bowden plot) ([1]; plasmin 42.5 nM, PBS pH 7.4): competitive inhibition; also recorded: competitive inhibitor
- rp: relative potency = Ki^AMB/Ki^multi ([1]; plasmin, S-2251 100-500 μM): 25.2
- rp/n: relative potency/number of benzamidine units ([1]; plasmin, S-2251 100-500 μM): 12.6
